The nature of series [1]: Drug uptake in African green monkey COS-1 cells at 10 uM measured after 24 hrs by trypan blue staining based LC-MS/MS analysis. It counts as ADME, cell-based. The note with it: chlorocebus aethiops, cos-1, 24 h.
The species entered for series [2] is Homo sapiens. The experiment in a line: Ratio of Ki for displacement of NEt-C343 from human RXRalpha-LBD expressed in African green monkey COS-1 cells to Kd for binding affinity to human RXRalpha-LBD expressed in African green monkey COS-1 cells. It counts as cell-based.
Series [3] concerns the target T1, Retinoic acid receptor RXR-alpha (Homo sapiens, UniProt P19793).
T1 sequence (P19793 whole entry): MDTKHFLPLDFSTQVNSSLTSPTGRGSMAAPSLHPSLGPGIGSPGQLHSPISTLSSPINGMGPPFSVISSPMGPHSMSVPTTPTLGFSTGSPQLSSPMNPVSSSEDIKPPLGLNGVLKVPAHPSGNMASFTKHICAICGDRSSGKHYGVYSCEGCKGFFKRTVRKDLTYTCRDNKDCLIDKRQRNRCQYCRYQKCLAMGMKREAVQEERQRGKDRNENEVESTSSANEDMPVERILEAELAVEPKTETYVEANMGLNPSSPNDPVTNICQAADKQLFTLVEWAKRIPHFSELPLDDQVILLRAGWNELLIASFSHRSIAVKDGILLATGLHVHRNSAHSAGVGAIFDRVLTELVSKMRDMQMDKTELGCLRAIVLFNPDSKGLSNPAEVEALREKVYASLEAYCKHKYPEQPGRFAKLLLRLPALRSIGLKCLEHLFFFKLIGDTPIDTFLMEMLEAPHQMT
The experiment in a line: Antagonist activity at human RXR-alpha expressed in African green monkey COS-1 cells assessed as reduction in bexarotene-induced receptor transactivation at 1 uM by luciferase reporter gene assay. It counts as cell-based. The conditions noted are these: read-out: pA2 (converted). For orientation: In a reporter assay the amount or activity of a reporter protein is the signal.

The target in series [4] is T1, Retinoic acid receptor RXR-alpha. The series can be described thus: Binding affinity to human RXRalpha-LBD expressed in African green monkey COS-1 cells assessed as dissociated constant incubated for 2 hrs by tryptophan fluorescence quenching assay. It counts as cell-based.
For series [5] the target is unchanged. The experiment in a line: Antagonist activity at human RXR-alpha expressed in African green monkey COS-1 cells assessed as reduction in NEt-TMN-induced receptor transactivation at 1 uM by luciferase reporter gene assay. It counts as cell-based. The conditions noted are these: read-out: pA2 (converted).
Series [6] shares this target. The series can be described thus: Displacement of NEt-C343 from human RXRalpha-LBD expressed in African green monkey COS-1 cells assessed as inhibition constant incubated for 2 hrs by competitive binding assay. It counts as cell-based.
Series [7] concerns the target T2, Retinoic acid receptor RXR-alpha (Homo sapiens) (UniProt P19793).
T2 sequence (whole entry): T1 sequence (P19793 whole entry)
The series can be described thus: Antagonist activity at human RXR-alpha expressed in African green monkey COS-1 cells assessed as reduction in NEt-TMN-induced receptor transactivation by measuring shift in concentration-response curve at 1 uM by luciferase reporter gene assay.

Activity calls are given as the source filed them. No cut-off for these calls is given here.

Regarding `CCCCCCOc1cc2c(cc1-n1c(C(F)(F)F)nc3cc(C(=O)O)ccc31)C(C)(C)CCC2(C)C`, in series [1], the Drug uptake is 55.1 pg/10^4 cells.

In general, Kd refers to the free concentration of one partner at which half of the binding sites on the other are occupied at equilibrium, for simple one-to-one binding. In general, Ki refers to a dissociation constant, usually derived from enzyme kinetics or from competition with a known ligand. For `CCCCCOc1cc2c(cc1-n1c(C(F)(F)F)nc3cc(C(=O)O)ccc31)C(C)(C)CCC2(C)C`, the Drug uptake in series [1] was determined as 14.8 pg/10^4 cells. The Ratio in series [2] was found to be 1.39. Besides, the Kb was 8.71 nM in series [3] and 26.3 nM in series [5]. The Kd in series [4] was found to be 277 nM. Also, in series [6], the inhibition constant (Ki) stood at 384 nM.

In series [1], `CCCCCCOc1cc2c(cc1-n1nnc3cc(C(=O)O)ccc31)C(C)(C)CCC2(C)C` came in with a Drug uptake of 81.6 pg/10^4 cells. Besides, the Ratio in series [2] amounted to 4.48. Moreover, the result in series [7] was inactive. Further, in series [4], the Kd was 705 nM. In series [6], the Ki was 3160 nM.

In series [1], `CCCCCOc1cc2c(cc1-n1nnc3cc(C(=O)O)ccc31)C(C)(C)CCC2(C)C` had a Drug uptake of 10.2 pg/10^4 cells. The Ratio in series [2] was 4.63. The outcome in series [7] was inactive. Further, the Kd in series [4] amounted to 764 nM. For the same compound, the Ki in series [6] is 3540 nM.

These data come from ChEMBL document CHEMBL5029199, “Increased Molecular Flexibility Widens the Gap between K i and K d values in Screening for Retinoid X Receptor Modulators” (ACS Med Chem Lett, 2022).
